Laboratory results: patent US20120040920A1, “OLIGOSACCHARIDE ALDONIC ACIDS AND THEIR TOPICAL USE” (priority 1999, published 2012)

Legend:
[1] = antioxidant property, banana peel test method; conditions: for colour of banana peels: 1×2 cm peels in 5 ml 0.1 M solution, room temperature
Source text: (§1) An antioxidant may be defined as a substance capable of preventing or inhibiting oxidation. […] The antioxidant property is readily determined by using any one of the following test methods: prevention or retardation of air oxidation of (a) anthralin, (b) hydroquinone, or (c) banana peel. A freshly prepared anthralin solution or cream is bright yellow, and an air oxidized one is brownish or black. A hydroquinone solution or cream is colorless or white color, and an air oxidized one is brownish or black. A freshly peeled banana peel is light yellow in color and an oxidized one ranges in color from tan, dark tan, brown to brownish black.
For example, in control experiments, fresh banana peels cut into sizes of 1×2 cm in 50 mm plastic petri dishes containing 5 ml water at neutral or acidic pH changed in color from white-yellowish to tan within 6 hours at room temperature, and changed to dark tan color during the next period of 24 to 72 hours.
Antioxidant property of an oligosaccharide aldonic acid may also be determined by utilizing banana peel test method as follows.
A fresh ripe banana peel cut into sizes of 2×2 cm has the outer layer light yellow in color. These freshly cut banana peels after exposed to air or immersed in an aqueous solution without an antioxidant in 50 mm plastic petri dishes rapidly changed in color from yellowish to tan within 3 hours, dark tan within 24 hours and brown black after 72 hours. A test substance including a positive control such as vitamin C, citric acid or N-acetylcysteine was prepared as 0.1 M concentration, and each test dish contained 5 ml test solution. Freshly cut banana peels 2×2 cm in sizes were immersed in 5 ml test solutions including known antioxidants and vehicle controls with pH at 7.0 and 4.0. […] The same results were also found for the known antioxidant substances; vitamin C, citric acid and N-acetylcysteine.

[2] = antioxidant property, hydroquinone test method; assay type: physicochemical; conditions: oil-in-water cream, 2% hydroquinone, test substance 0.4 M, room temperature, 5 days
Source text: as §1
Antioxidant property of an oligosaccharide aldonic acid may also be determined by utilizing hydroquinone test method as follows. Hydroquinone also known as 1,4-dihydroxybenzene is a white powder, and a composition containing hydroquinone without a suitable antioxidant is chemically unstable even at room temperature. For example, hydroquinone 2% in an oil-in-water cream changed in color from white to grey within 2 hours, and the cream became light brown within 48 hours and dark brown after 72 hours at room temperature.

[3] = system: dry vaginal mucosa; assay: topical treatment of dry vaginal mucosa; assay type: in vivo, human; conditions: 5% in molecular complex with 0.5% L-arginine, oil-in-water cream pH 3.1, twice daily, one week, person
Description: Lactobionic acid 50% aqueous solution 10 g was uniformly mixed with an oil-in-water base 80 g, and the cream thus obtained had pH 2.5. L-Arginine 5% solution 10 g prepared from 8 parts water and 2 parts propylene glycol by volume was added to form molecular complex of amphoteric system as shown by the increase of pH to 3.1. The composition thus formulated contained 5% lactobionic acid in molecular complex with 0.5% L-arginine.
A subject, having dry vaginal mucosa topically applied the above bionic acid cream twice daily to the affected areas of the mucosa.

[4] = system: chronic gum disease of bleeding; assay: oral gurgling treatment of chronic gum disease; assay type: in vivo, human; conditions: 5% in molecular complex with 1% L-arginine, pH 3.3, gurgling twice daily, one week, person
Description: Lactobionic acid 50% aqueous solution 10 g was diluted with 60 ml water and 10 ml propylene glycol, and the solution had pH 2.1. L-Arginine 5% solution 20 g prepared from 8 parts water and 2 parts propylene glycol by volume was added to form molecular complex of amphoteric system as shown by the increase of pH to 3.3. The composition thus formulated contained 5% lactobionic acid in molecular complex with 1% L-arginine.
A subject, having chronic gum disease of bleeding during the tooth brushing, used the above bionic acid complex composition twice daily as a gurgling solution with at least one minute of contact time in oral cavity. No food or drink was taken for the next 30 minutes.

## O=C(O)[C@H](O)[C@@H](O)[C@H](O[C@@H]1O[C@H](CO)[C@H](O)[C@H](O)[C@H]1O)[C@H](O)CO [lactobionic acid]
[1]; 24 hours
  colour of banana peels: remained white-yellowish
[1]; after 72 hours
  colour of banana peels: changed in color to tan
[1]; 2×2 cm peels in 5 ml 0.1 M test solution, water control tan within 4 hours
  colour change of banana peels: did not change color
[2]
  colour change of hydroquinone cream: did not change color
[3]
  dryness of vaginal mucosa: dryness of vaginal mucosa disappeared completely
[4]
  gum bleeding during tooth brushing: gum bleeding stopped or became less noticeable
